Reference: patent publication US20090149412A1, “Method for Inhibition of Phospholamban Activity for the Treatment of Cardiac Disease and Heart Failure” (THE REGENTS OF THE UNIVERSITY OF CALIFORNIA, priority 1999, published 2009)
“And” between values parts separate entries of the source, which are not always exact repeats. Identical values can stand only once.

How the values were obtained:
Type in all cases: cell-based
PLB protein = assay: Western blot quantification of PLB protein content in myocytes infected with adenovirus transgenes; settings: normalized to a-actin, compared with adenovirus/SR control lacking the transgene
Text: FIG. 6a is a Western blot analysis of myocytes containing the adenovirus transgenes expressing sense PLB (sPLB), antisense PLB (asPLB), E2A, R14E, S16N, and K3E/R14E against monoclonal PLB. FIG. 6b is a Western blot showing the results of cell infectivity by PLB, sPLB and K3E/R14E. FIG. 6c illustrates the Western blot analysis of PLB infectivity of So18 cells.
Additional Western blot analysis of myocytes containing the adenovirus transgenes expressing sense PLB (sPLB), antisense PLB (asPLB), E2A, R14E, S1.6N, and K3E/R14E against monoclonal PLB antibody (Affinity BioReagents) is shown in FIG. 6a. […] In contrast, asPLB and S16N results in 54% and 33% decrease in PLB protein content within the myocytes. The introduction of K3E/R14E transgene infection of myocytes leads to a formation of a distinct pattern of pentamer PLB. Multiple PLB bands appear in addition to PLB5 (the pentamer).

[1] = test system: isolated mouse cardiomyocytes; assay: Contraction cycle of isolated mouse cardiomyocytes with penetratin-PLB peptide; settings: 10 μM peptide; for Maximum Contract. / Minimum Contract.: arbitrary unit of length, single samples 1-7 and Mean; for Relax. Slope: control mean 0.9814
Text: Cell level studies were done to evaluate the ability of two penetratin-based peptides, two mutant PLB-penetratin peptides, and two multiple antigen peptides (MAP) to strengthen the contraction cycle of isolated mouse cardiomyocytes. The two penetratin-based peptides include PLB-ANT (Seq. ID. No. 10) and TAT-PLB (Seq. ID. No. 11) each of which have a 20 residue portion of the PLB sequence attached to either the 5′ end of ANT (Seq. ID. No. 14) or the 3′ end of TAT (Seq. ID. No. 15). The two mutant PLB peptides, mutant PLB-ANT (Seq. ID. No. 12) and TAT-mutant PLB (Seq. ID No. 13), display a S16E mutation of the 20 residue PLB sequence. The multiple antigen peptides include MAP with 8 penetratin (ANT) domains and MAP with 4 penetratin domains and 4 PLB domains.
Each of the penetratin-PLB peptides were evaluated to measure their ability to strengthen the contraction cycle of isolated mouse cardiomyocytes, the idea being that the penetratin-PLB peptide would act as a dominant negative inhibitor of the PLE3-SERCA2a interaction.
Measurements were taken every 20 milliseconds, and the unit of length was arbitrary, but was generally on the order of one complete cell length. Percent contraction was calculated as (maximum length minus minimum length) divided by maximum length. A plot of time versus length generated a U-shaped curve from which the most linear segments were selected, with the left side of the “U” representing contraction and the right side representing relaxation.

SR Ca2+ transport = assay: Radioactive Ca2+ transport assay (SR Ca2+ transport); settings: adenoviral vector expressing contractilin, rat cardiomyocytes
Description: The amplified and purified hypervariable region RNA is then fused to a single cDNA (Seq. ID. No. 9) and subsequently cloned in frame into a plasmid vector, coding for a phage surface protein. Using standard phage display technique, phages which express the immune library of the chicken are selected by their positive response to the PLB peptide. After a series of enrichment for phages which specifically bind PLB, 20 clones are selected for ELISA. The resulting 5 best binders are then analyzed using a radioactive Ca^2+ transport assay. The two best activators of SR Ca^2+ transport are further analyzed. Both clones are found to dramatically stimulate the rate of Ca^2+ transport into the SR.

E2A: adenoviral single point mutation of PLB, Seq. ID. No. 3 (MAKVQYLTRSAIRRASTIEMPQQARQKLQNLFINFCLILICLLLICIIVMLL; adenoviral vector; listed as Homo sapiens)
increase in PLB protein level (PLB protein): 72%

R14E: adenoviral single point mutation of PLB, Seq. ID. No. 4 (MEKVQYLTRSAIREASTIEMPQQARQKLQNLFINFCLILICLLLICIIVMLL; adenoviral vector; listed as Homo sapiens)
increase in PLB protein level (PLB protein): 57%

TAT-PLB: 20 residue portion of the PLB sequence attached to the 3′ end of TAT, Seq. ID. No. 11 (GGGGYGRKKRRQRRRMEKVQYLTRSAIRRASTIEM; listed as Homo sapiens)
effect on myocyte contraction (overall) ([1]; T-test, no statistical difference): trend towards a larger, faster contraction | Maximum Contract. [1]: 112.57 and 109.68 and 133.82 and 81.61 and 74.423 and 126.89 and 133.61 | Minimum Contract. [1]: 101.17 and 102.00 and 116.32 and 67.871 and 64.629 and 108.38 and 128.21 | Maximum Contract. ([1]; mean): 110.373 | Minimum Contract. ([1]; mean): 98.363 | Relax. Slope [1]: 0.9925 and 0.9790 and 0.9878 and 0.9697 and 0.9933 and 0.9939 and 0.9959 | Relax. Slope ([1]; mean): 0.9874

B1: contractilin: recombinant protein from chicken polyclonal PLB antibody hypervariable regions, expressed from adenoviral vector (Seq. ID. No. 9) (protein, listed as Homo sapiens)
chain: MHHHHHHVAQAALTHSSSVSANPGETVKITCSGGGNYAGSYYYGWFQQKSPGSAPVTVIYSNDQRPSNIPSRFSGSTSGSTSTLTITGVRAEDEAVYFCGSNSGTGYVGIFGAGTTLTVLGQSSRSSTVTLDESGGGLQTPGGALSLVCRASGFTFSRFHMMWVRQAPGKGLEWVAGIDDGGSFTLYGAAVKGRATILRDNGQSTVRLQLDNLRPEDTATYFCVKTKCGGNGWCGADRIDAWGHGTEVIVSSTSGQAGQYPYDVPDYAS
cytoplasmic Ca2+ removal (SR Ca2+ transport): accelerates cytoplasmic Ca^2+ removal
